According to PubChem BioAssay AID328 (DTP/NCI, 2004):
Where “and” joins values, the source holds several entries; their conditions need not be identical. Equal entries are not always repeated. Toxic doses and inconclusive results are not listed.

Test system: BDF1 mice, P388 leukemia ip, median survival T/C
Experiment: NCI In Vivo Anticancer Drug Screen. Data for tumor model P388 Leukemia (intraperitoneal) in B6D2F1 (BDF1) mice
Conditions: endpoint: median survival time, higher = longer survival
Outline: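 Each value expresses how treatment altered survival: treated-mouse outcome over vehicle-mouse outcome, both groups bearing the transplanted tumour.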

[1] = dose: 50.0 mg/kg/injection, schedule: Q04DX003 (ip), vehicle: saline with Tween-80
[2] = dose: 100.0 mg/kg/injection, schedule: Q04DX003 (ip), vehicle: saline with Tween-80
[3] = dose: 200.0 mg/kg/injection, schedule: Q04DX003 (ip), vehicle: saline with Tween-80
[4] = dose: 50.0 mg/kg/injection, schedule: Q01DX009 (ip), vehicle: saline with Tween-80

Q: Which results are given for CCCCCCCCCCCCCC(=O)O[C@@H]1[C@@H](C)[C@@]2(O)[C@@H](C=C(CO)C[C@]3(OC)C(=O)C(C)=C[C@@H]23)[C@@H]2C(C)(C)[C@]12OC(C)=O?
A: T/C (dose: 0.03 mg/kg/injection, schedule: Q01DX009 (ip), vehicle: saline + alcohol): 91 % of control; T/C (dose: 0.06 mg/kg/injection, schedule: Q01DX009 (ip), vehicle: Klucel (hydroxypropylcellulose) (HPC)): 91 % of control; T/C (dose: 0.06 mg/kg/injection, schedule: Q01DX009 (ip), vehicle: saline + alcohol): 94 % of control; T/C (dose: 0.12 mg/kg/injection, schedule: Q01DX009 (ip), vehicle: Klucel (hydroxypropylcellulose) (HPC)): 94 % of control; T/C (dose: 0.12 mg/kg/injection, schedule: Q01DX009 (ip), vehicle: saline + alcohol): 117 % of control; T/C (dose: 0.25 mg/kg/injection, schedule: Q01DX009 (ip), vehicle: Klucel (hydroxypropylcellulose) (HPC)): 94 % of control; T/C (dose: 0.25 mg/kg/injection, schedule: Q01DX009 (ip), vehicle: saline + alcohol): 94 % of control; T/C (dose: 0.5 mg/kg/injection, schedule: Q01DX009 (ip), vehicle: Klucel (hydroxypropylcellulose) (HPC)): 110 % of control; T/C (dose: 0.5 mg/kg/injection, schedule: Q01DX009 (ip), vehicle: saline + alcohol): 107 % of control; T/C (dose: 1.0 mg/kg/injection, schedule: Q01DX009 (ip), vehicle: Klucel (hydroxypropylcellulose) (HPC)): 94 % of control; T/C (dose: 1.0 mg/kg/injection, schedule: Q01DX009 (ip), vehicle: saline + alcohol): 100 % of control; T/C (dose: 3.1 micrograms/kg/injection, schedule: Q01DX009 (ip), vehicle: gum acacia): 106 % of control; T/C (dose: 3.1 micrograms/kg/injection, schedule: Q01DX009 (ip), vehicle: saline + alcohol): 94 % of control; T/C (dose: 3.1 micrograms/kg/injection, schedule: Q01DX009 (ip), vehicle: saline with Tween-80): 87 % of control; T/C (dose: 6.2 micrograms/kg/injection, schedule: Q01DX009 (ip), vehicle: gum acacia): 97 % of control; T/C (dose: 6.2 micrograms/kg/injection, schedule: Q01DX009 (ip), vehicle: saline + alcohol): 87 % of control; T/C (dose: 6.2 micrograms/kg/injection, schedule: Q01DX009 (ip), vehicle: saline with Tween-80): 97 % of control; T/C (dose: 12.5 micrograms/kg/injection, schedule: Q01DX009 (ip), vehicle: gum acacia): 87 % of control; T/C (dose: 12.5 micrograms/kg/injection, schedule: Q01DX009 (ip), vehicle: saline + alcohol): 94 % of control; T/C (dose: 12.5 micrograms/kg/injection, schedule: Q01DX009 (ip), vehicle: saline with Tween-80): 160 % of control; T/C (dose: 25.0 micrograms/kg/injection, schedule: Q01DX009 (ip), vehicle: saline + alcohol): 103 % of control; T/C (dose: 25.0 micrograms/kg/injection, schedule: Q01DX009 (ip), vehicle: saline with Tween-80): 103 % of control; T/C (dose: 50.0 micrograms/kg/injection, schedule: Q01DX009 (ip), vehicle: gum acacia): 122 % of control; T/C (dose: 50.0 micrograms/kg/injection, schedule: Q01DX009 (ip), vehicle: saline + alcohol): 101 % of control; T/C (dose: 50.0 micrograms/kg/injection, schedule: Q01DX009 (ip), vehicle: saline with Tween-80): 87 % of control; T/C (dose: 100.0 micrograms/kg/injection, schedule: Q01DX009 (ip), vehicle: gum acacia): 106 % of control; T/C (dose: 100.0 micrograms/kg/injection, schedule: Q01DX009 (ip), vehicle: saline + alcohol): 97 % of control; T/C (dose: 100.0 micrograms/kg/injection, schedule: Q01DX009 (ip), vehicle: saline with Tween-80): 122 % of control; T/C (dose: 200.0 micrograms/kg/injection, schedule: Q01DX009 (ip), vehicle: gum acacia): 113 % of control; T/C (dose: 200.0 micrograms/kg/injection, schedule: Q01DX009 (ip), vehicle: saline + alcohol): 97 % of control; T/C (dose: 200.0 micrograms/kg/injection, schedule: Q01DX009 (ip), vehicle: saline with Tween-80): 106 % of control; T/C (dose: 400.0 micrograms/kg/injection, schedule: Q01DX009 (ip), vehicle: gum acacia): 160 % of control; T/C (dose: 400.0 micrograms/kg/injection, schedule: Q01DX009 (ip), vehicle: saline + alcohol): 94 % of control; T/C (dose: 400.0 micrograms/kg/injection, schedule: Q01DX009 (ip), vehicle: saline with Tween-80): 94 % of control; T/C (dose: 800.0 micrograms/kg/injection, schedule: Q01DX009 (ip), vehicle: gum acacia): 94 % of control; T/C (dose: 800.0 micrograms/kg/injection, schedule: Q01DX009 (ip), vehicle: saline + alcohol): 106 % of control; T/C (dose: 800.0 micrograms/kg/injection, schedule: Q01DX009 (ip), vehicle: saline with Tween-80): 169 % of control

Q: Which T/C (dose: 3.0 mg/kg/injection, schedule: Q01DX009 (ip), vehicle: saline) does the source give for CCC[N+](C)(C)CCCCOCCCC[N+](C)(C)CCC here?
A: 88 % of control

Q: What about the T/C (dose: 3.0 mg/kg/injection, schedule: Q04DX003 (ip), vehicle: saline) of the same compound?
A: 100 % of control

Q: What about the T/C (dose: 6.0 mg/kg/injection, schedule: Q01DX009 (ip), vehicle: saline) of the same compound?
A: 92 % of control

Q: And the T/C (dose: 6.0 mg/kg/injection, schedule: Q04DX003 (ip), vehicle: saline)?
A: 116 % of control

Q: And the T/C (dose: 6.25 mg/kg/injection, schedule: Q04DX003 (ip), vehicle: saline)?
A: 113 % of control

Q: What about the T/C (dose: 12.0 mg/kg/injection, schedule: Q01DX009 (ip), vehicle: saline) of the same compound?
A: 96 % of control

Q: What about the T/C (dose: 12.0 mg/kg/injection, schedule: Q04DX003 (ip), vehicle: saline) of the same compound?
A: 100 % of control

Q: And the T/C (dose: 12.5 mg/kg/injection, schedule: Q04DX003 (ip), vehicle: saline)?
A: 109 % of control

Q: Which results are given for CC(Br)C(=O)NC(CC(N)=O)C(=O)O (stereo unspecified)?
A: T/C [1]: 100 % of control; T/C [2]: 90 % of control; T/C [3]: 100 % of control

Q: Which results are given for COC1(c2ccco2)OC1(C)C (stereo unspecified)?
A: T/C (dose: 5.0 mg/kg/injection, schedule: Q01DX009 (ip), vehicle: Klucel (hydroxypropylcellulose) (HPC)): 86 % of control; T/C (dose: 5.0 mg/kg/injection, schedule: Q04DX003 (ip), vehicle: saline): 109 % of control; T/C (dose: 10.0 mg/kg/injection, schedule: Q01DX009 (ip), vehicle: Klucel (hydroxypropylcellulose) (HPC)): 86 % of control; T/C (dose: 10.0 mg/kg/injection, schedule: Q04DX003 (ip), vehicle: saline): 109 % of control; T/C (dose: 20.0 mg/kg/injection, schedule: Q01DX009 (ip), vehicle: Klucel (hydroxypropylcellulose) (HPC)): 90 % of control; T/C (dose: 20.0 mg/kg/injection, schedule: Q04DX003 (ip), vehicle: saline): 104 % of control

Q: What does the source list for COC1OCC(N=[N+]=[N-])C2OC12 (stereo unspecified)?
A: T/C (dose: 25.0 mg/kg/injection, schedule: Q01DX009 (ip), vehicle: water): 96 % of control; T/C (dose: 50.0 mg/kg/injection, schedule: Q01DX009 (ip), vehicle: water): 102 % of control; T/C (dose: 100.0 mg/kg/injection, schedule: Q01DX009 (ip), vehicle: water): 119 % of control; T/C (dose: 200.0 mg/kg/injection, schedule: Q01DX009 (ip), vehicle: water): 102 % of control

Q: For Cc1ccc(S)c(S)c1, which T/C (dose: 3.12 mg/kg/injection, schedule: Q01DX009 (ip), vehicle: saline) is on record?
A: 97 % of control

Q: What about the T/C (dose: 6.25 mg/kg/injection, schedule: Q01DX009 (ip), vehicle: saline) of the same compound?
A: 103 % of control

Q: And the T/C (dose: 12.5 mg/kg/injection, schedule: Q01DX009 (ip), vehicle: saline)?
A: 103 % of control

Q: And the T/C (dose: 25.0 mg/kg/injection, schedule: Q01DX009 (ip), vehicle: saline)?
A: 112 % of control

Q: Which T/C (dose: 100.0 mg/kg/injection, schedule: Q01DX009 (ip), vehicle: other) does the source give for NS(=O)(=O)c1ccc(N=Nc2nc3ncnc(SCc4cccs4)c3[nH]2)cc1 here?
A: 95 % of control

Q: What about the T/C (dose: 100.0 mg/kg/injection, schedule: Q04DX003 (ip), vehicle: saline) of the same compound?
A: 104 % of control

Q: What about the T/C (dose: 200.0 mg/kg/injection, schedule: Q01DX009 (ip), vehicle: other) of the same compound?
A: 118 % of control

Q: And the T/C (dose: 200.0 mg/kg/injection, schedule: Q04DX003 (ip), vehicle: saline)?
A: 104 % of control

Q: What about the T/C (dose: 400.0 mg/kg/injection, schedule: Q01DX009 (ip), vehicle: other) of the same compound?
A: 86 % of control

Q: And the T/C (dose: 400.0 mg/kg/injection, schedule: Q04DX003 (ip), vehicle: saline)?
A: 108 % of control

Q: What does the source list for CC(=O)Nc1ccn(C2OC(COC(C)=O)C(OC(C)=O)C2OC(C)=O)c(=O)n1 (stereo unspecified)?
A: T/C [2]: 109 % of control; T/C (dose: 177.0 mg/kg/injection, schedule: Q04DX003 (ip), vehicle: saline with Tween-80): 104 % of control; T/C (dose: 266.0 mg/kg/injection, schedule: Q04DX003 (ip), vehicle: saline with Tween-80): 100 % of control and 116 % of control; T/C (dose: 400.0 mg/kg/injection, schedule: Q04DX003 (ip), vehicle: saline with Tween-80): 108 % of control and 118 % of control

Q: For S=C(N/N=C/c1ccc(-c2ccccc2)cc1)Nc1ccccc1, which T/C [4] is on record?
A: 91 % of control

Q: What about the T/C [1] of the same compound?
A: 95 % of control

Q: What about the T/C (dose: 100.0 mg/kg/injection, schedule: Q01DX009 (ip), vehicle: saline with Tween-80) of the same compound?
A: 91 % of control

Q: What about the T/C [2] of the same compound?
A: 91 % of control

Q: What about the T/C (dose: 200.0 mg/kg/injection, schedule: Q01DX009 (ip), vehicle: saline with Tween-80) of the same compound?
A: 91 % of control

Q: And the T/C [3]?
A: 91 % of control

Q: For Clc1ccc(CNc2ncnc3[nH]ncc23)cc1Cl, which T/C (dose: 12.5 mg/kg/injection, schedule: Q01DX009 (ip), vehicle: saline with Tween-80) is on record?
A: 100 % of control

Q: What about the T/C (dose: 25.0 mg/kg/injection, schedule: Q01DX009 (ip), vehicle: saline with Tween-80) of the same compound?
A: 100 % of control

Q: What about the T/C [4] of the same compound?
A: 100 % of control
